Results as given in patent US20200375949A1, “BISPHENOL COMPOUNDS” (THE TRUSTEES OF THE UNIVERSITY OF PENNSYLVANIA, priority 2017, published 2020).
Converted amounts (≈) assume the structure as drawn. “And” between values parts separate entries of the source, which are not always exact repeats. Equal values may be shown once. Read-outs that look alike come from different tables or passages of the source.

Key:
[1] = system: Streptococcus sanguinis strain 10904; test: MIC assay, S. sanguinis; type: cell-based; details: 5% CO2, 37° C., 20-24 hours
From the text: (§1) Streptococcus mutans wild-type strain UA159 was provided by Dr. Bettina Buttaro from Temple University Medical School, Philadelphia, Pa. Streptococcus gordonii strain DL1 and Streptococcus sanguinis strain 10904 were provided by Dr. Robert G. Quivey from University of Rochester Medical School. Streptococcus gordonii strain DL1 may be obtained from the American Type Culture Collection under accession #49818. Streptococcus sanguinis strain 10904 may be obtained from the National Collection of Type Cultures under accession #10904. Bacteria were routinely maintained on in Bacto™ Todd-Hewitt (TH) agar plates and liquid cultures were grown in Bacto™ Todd-Hewitt broth (THB). For growth of biofilms, THB was supplemented with 0.1% sucrose. Incubation was stagnant at 37° C. Bacterial strains Methicillin-Resistant Staphylococcus aureus HPV107, Staphylococcus epidermidis Fussel [NCTC 11047, R. Hugh 2466], Streptococcus sobrinus SL1 [CCM 6070, CNCTC 9/89], Enterococcus faecalis NCTC 775 [DSM 20478, JCM 8726, NCDO 581, Tissier], Pseudomonas aeruginosa [CCEB 481, MDB strain BU 277, NCIB 8295, NCPPB 1965, NCTC 10332, NRRL B-771, R. Hugh 815], Serratia marcescens BS 303 [CDC 813-60, NCIB 9155, NCTC 10211], and Acinetobacter baumannii 2208 [81, DSM 6974] were purchased from the American Type Culture Collection.
(§2) Stock solutions of compounds (10 mM) were serial diluted (200 μL, 100 μL, 50 μL, 10 μL, and 2 μL) in THB media in flat-bottom 96-well microtiter plates (total volume 100 μL). Bacterial cultures were grown in brain heart infusion or nutrient broth media to mid-exponential phase, back diluted to an OD of 0.1 and then inoculated into the 96-well plate to reach a final volume of 200 μL. Plates were inoculated at 37° C. in 5% CO2 for 20-24 hours upon which time wells were evaluated visually for bacterial growth and/or the wells' OD630 was evaluated via spectrophotometer. […] DMSO controls corresponding to each test concentration were performed. Biological triplicates were performed to confirm results.

[2] = system: Streptococcus mutans wild-type strain UA159; test: MIC assay, S. mutans; type: cell-based
From the text: as §1, §2

[3] = system: Streptococcus gordonii strain DL1; test: MIC assay, S. gordonii; type: cell-based; details: 5% CO2, 37° C., 20-24 hours
From the text: as §1, §2

[4] = system: Streptococcus mutans wild-type strain UA159; test: MIC assay, S. mutans; type: cell-based; details: read-out: MIC S. mutans, aerobic conditions
[5] = system: Streptococcus mutans wild-type strain UA159; details: original assays in aerobic environment; cited from earlier work
S. mutans biofilm = S. mutans biofilm model / crystal violet; type: cell-based, Streptococcus mutans; details: at concentrations of 250 μM or lower
Protocol: Stock solutions of the compounds (10 mM) were serial diluted in THB media supplemented with 0.1% sucrose (w/v) in flat-bottom 96-well microtiter plates (total volume 100 μL). Bacterial cultures were grown to mid-exponential phase, back diluted to an OD of 0.1 and then inoculated into the 96-well plate to reach a final volume of 200 μL. Plates were incubated at 37° C. in 5% CO2 for 24 hours (early stage biofilm) upon which time wells were evaluated visually for bacterial growth. DMSO controls corresponding to each test concentration were performed. Biological triplicates were performed to confirm results. Biofilm assay was performed (above) and wells are washed with 200 μL of DI H2O and dried for 24 hours at 37° C. Dried plates were incubated for 10 minutes at room temperature with 50 μL of 1% w/v crystal violet (25% ethanol in H2O). Excess crystal violet was removed via aspiration. 200 μL of DI H2O was added to each well and aspirated (repeat until all excess crystal violet is removed). Plates were then inverted and dried at 37° C. for 3-5 hours. Crystal violet stain biofilm mass was dissolved with 200 μL of 95% ethanol, 100 μL of which was then transferred to a fresh flat-bottom 96-well plate for absorbance measurements at 595 nm. DMSO controls corresponding to each test concentration were performed. Biological triplicate was performed to confirm results. […]

S. mutans = S. mutans MBC assay; type: cell-based, Streptococcus mutans; details: for bacteriostatic or bactericidal properties (regrow analysis, MIC vs MBC): S. mutans; for MBC: Streptococcus mutans, 3-log reduction in CFU count (99.9% bacterial death)
Protocol: MIC assay was performed (above) and each well diluted (log-dilution) into a new 96-well microtiter plate. Five μL from each dilution was then plated on THB agar plates and incubated for 24 hours. Colony counts were performed to determine MBC which is defined as the concentration which there is a 3-log reduction in CFU count which corresponds to 99.9% bacterial death.

membrane = test: SYTOX green cell permeabilization assay; type: cell-based; details: SYTOX green nucleic acid stain, FIGS. 1A-1F
Protocol: This example was performed to measure cell viability (i.e., cell permeabilization) by using a molecule that fluoresces when bound to DNA. The assay performed was a SYTOX™ assay green nucleic acid stain using compounds 1H and 2E. Specifically, when the membrane was perturbed, the molecule entered the cell, bound to DNA and fluoresced. The positive and negative controls were a quaternary ammonium compound (QAC; 12,3,2,3,12) and vancomycin, respectively. See the results shown in, e.g., FIGS. 1A-1F.

[6] = system: red blood cells (mechanically defibrinated sheep blood); test: Hemolysis assay (cell lysis); type: cell-based; set-up: red blood cell lysis: unit not given here; details: for red blood cell lysis: 1 hour, 37° C.; for concentration at which the membrane is perturbed: stated under the cell lysis example
Protocol: The effects of the compounds described herein to lyse cells was evaluated in this example. Hemolysis assays were performed on mechanically defibrinated sheep blood (Hemostat Labs: DSB030). 1.5 mL of blood was placed into a microcentrifuge tube and centrifuged at 10,000 rpm for ten minutes. The supernatant was removed and then the cells were resuspended with 1 mL of phosphate-buffered saline (PBS). The suspension was centrifuged as previously, the supernatant was removed, and cells were resuspended two more times. The final cell suspension was diluted twentyfold with PBS. The twentyfold suspension dilution was then aliquoted into microcentrifuge tubes containing compound serially diluted in PBS. TritonX (1% by volume) served as a positive control (100% lysis marker) and sterile PBS served as a negative control (0% lysis marker). Samples were then placed in an incubator at 37° C. and shaken at 200 rpm. After 1 hour, the samples were centrifuged at 10,000 rpm for ten minutes. The absorbance of the supernatant was measured with a UV spectrometer at a 540 nm wavelength. See, e.g., Peng, Chem. Comm. 2011, 47, 4896-4898.

[7] = planktonic, 5% CO2, 37° C., 20-24 hours
[8] = Concentration 500 μM, TritonX 100% lysis, PBS 0% lysis

| MIC [1] [µM] | MIC [2, 7] [µM] | MIC [3] [µM] | Structure (SMILES) | concentration at which the membrane is perturbed (membrane) [µM] | red blood cell lysis ([6]; Concentration 0.25 μM) | red blood cell lysis ([6]; Concentration 0.5 μM) | red blood cell lysis ([6]; Concentration 1 μM) | red blood cell lysis ([6]; Concentration 2 μM) | red blood cell lysis ([6]; Concentration 4 μM) | red blood cell lysis ([6]; Concentration 8 μM) | red blood cell lysis ([6]; Concentration 16 μM) | red blood cell lysis ([6]; Concentration 32 μM) | red blood cell lysis ([6]; Concentration 63 μM) | red blood cell lysis ([6]; Concentration 125 μM) | red blood cell lysis ([6]; Concentration 250 μM) | red blood cell lysis [6, 8] | concentration at which the membrane is perturbed [6] [µM] | bacteriostatic or bactericidal properties (regrow analysis, MIC vs MBC) (S. mutans) | MBC (S. mutans) [µM] | other results |
| --- | --- | --- | --- | --- | --- | --- | --- | --- | --- | --- | --- | --- | --- | --- | --- | --- | --- | --- | --- | --- |
| 2.5 (≈ 0.816 µg/mL) | 2 | 1.25 (≈ 0.408 µg/mL) | CC(C)(C)c1ccc(CCc2ccc(C(C)(C)C)c(O)c2)cc1O [Compound C2, 5,5′-(Ethane-1,2-diyl)bis(2-(tert-butyl)phenol)] | 32 | 0.02 | 0.01 | −0.02 | −0.02 | −0.01 | −0.03 | −0.03 | 0.07 | 0.29 | 0.43 | 0.70 | 0.48 | 32 | bactericidal | 4 (≈ 1.31 µg/mL) | lysis of blood cells [6]: lyses blood cells at high concentrations |
| 32 (≈ 9.8 µg/mL) | 32 | 32 (≈ 9.8 µg/mL) | Cc1cc(-c2c(O)ccc3ccccc23)cc(C(C)(C)C)c1O [Compound B9, 1-(3-(tert-Butyl)-4-hydroxy-5-methylphenyl)naphthalen-2-ol] |  |  |  |  |  |  |  |  |  |  |  |  |  |  |  | 32 (≈ 9.8 µg/mL) |  |

More lines, now with the values behind:

| Structure (SMILES) | MIC [1] [µM] | MIC [2, 7] [µM] | MIC [3] [µM] | concentration at which the membrane is perturbed (membrane) [µM] | red blood cell lysis ([6]; Concentration 0.25 μM) | red blood cell lysis ([6]; Concentration 0.5 μM) | red blood cell lysis ([6]; Concentration 1 μM) | red blood cell lysis ([6]; Concentration 2 μM) | red blood cell lysis ([6]; Concentration 4 μM) | red blood cell lysis ([6]; Concentration 8 μM) | red blood cell lysis ([6]; Concentration 16 μM) | red blood cell lysis ([6]; Concentration 32 μM) | red blood cell lysis ([6]; Concentration 63 μM) | red blood cell lysis ([6]; Concentration 125 μM) | red blood cell lysis ([6]; Concentration 250 μM) | red blood cell lysis [6, 8] | concentration at which the membrane is perturbed [6] [µM] | bacteriostatic or bactericidal properties (regrow analysis, MIC vs MBC) (S. mutans) | MBC (S. mutans) [µM] | other results |
| --- | --- | --- | --- | --- | --- | --- | --- | --- | --- | --- | --- | --- | --- | --- | --- | --- | --- | --- | --- | --- |
| C=CCc1ccc(O)c(-c2ccc(O)c(CC=C)c2)c1 [Compound A1, honokiol, reference compound] | 125 (≈ 33.3 µg/mL) | 250 | 125 (≈ 33.3 µg/mL) |  |  |  |  |  |  |  |  |  |  |  |  |  |  |  |  | MIC ([2]; 5% CO2-supplemented environment): 66.6 µg/mL; MIC [4]: 125 µM and 33.3 µg/mL; MIC S. mutans, literature value [5]: 10 µg/mL (≈ 37.5 µM); inhibition of biofilm growth (S. mutans biofilm): unable to inhibit biofilm growth; bactericidal activity (S. mutans; at concentrations of 250 μM or lower): not bactericidal |
| CC(C)(C)c1ccc(Cc2ccc(C(C)(C)C)c(O)c2)cc1O [Compound 3N, 5,5′-methylenebis(2-(tert-butyl)phenol)] |  | 2 |  | 32 | 0.13 | −0.02 | −0.02 | −0.02 | 0.11 | −0.03 | −0.02 | 0.02 | 0.38 | 0.43 | 0.34 | 0.74 | 32 |  |  |  |
| CC(C)(C)c1cc(-c2c(O)ccc3cc(Br)ccc23)cc(C(C)(C)C)c1O [Compound B5, 6-Bromo-1-(3,5-di-tert-butyl-4-hydroxyphenyl)naphthalen-2-ol] | 4 (≈ 1.71 µg/mL) | 8 | 16 (≈ 6.84 µg/mL) |  |  |  |  |  |  |  |  |  |  |  |  |  |  | bacteriostatic | 125 (≈ 53.4 µg/mL) |  |
| Cc1cc(O)c(C)c(O)c1-c1cc(C(C)(C)C)c(O)c(C(C)(C)C)c1 [Compound A2, 3′,5′-Di-tert-3,6-methyl-[1,1′-biphenyl]-2,4,4′-triol] | 32 (≈ 11 µg/mL) | 32 | 32 (≈ 11 µg/mL) |  |  |  |  |  |  |  |  |  |  |  |  |  |  |  | 63 (≈ 21.6 µg/mL) |  |
